Where “and” joins values, the source holds several entries; their conditions need not be identical. Equal values may be shown once.
Legend:
breast cancer = conditions: 200-300 mg per day, cited from earlier work
[1] = system: MCF-7 breast cancer cells; conditions: cited from earlier work
[2] = system: 22Rv1 prostate cancer cells; assay: MTS cytotoxicity assay in 22Rv1 prostate cancer cells; conditions: for effect on cell viability of prostate cancer cells: 100 μM up to 72 hours
Outline: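 Cells seeded at 1×10^5 per well and dosed after 24 h at the indicated concentrations (final DMSO <1%), then incubated 48-72 hours at 37° C, 5% CO2. MTS added for 2-4 hr; absorbance at 490 nm, viability expressed as percentage of controls.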

[3] = molecular target: T1, Mitochondrial respiratory complex II (CII) (Rattus norvegicus, UniProt P21913+Q641Z9+Q6PCT8+Q920L2); conditions: rat heart mitochondria, literature; cited from earlier work
T1 construct: host or cells: rat heart mitochondria

TTK = molecular target: T2, TTK (Homo sapiens, UniProt P33981); conditions: 100 μM; cited from earlier work
T2 sequence (P33981 1-857): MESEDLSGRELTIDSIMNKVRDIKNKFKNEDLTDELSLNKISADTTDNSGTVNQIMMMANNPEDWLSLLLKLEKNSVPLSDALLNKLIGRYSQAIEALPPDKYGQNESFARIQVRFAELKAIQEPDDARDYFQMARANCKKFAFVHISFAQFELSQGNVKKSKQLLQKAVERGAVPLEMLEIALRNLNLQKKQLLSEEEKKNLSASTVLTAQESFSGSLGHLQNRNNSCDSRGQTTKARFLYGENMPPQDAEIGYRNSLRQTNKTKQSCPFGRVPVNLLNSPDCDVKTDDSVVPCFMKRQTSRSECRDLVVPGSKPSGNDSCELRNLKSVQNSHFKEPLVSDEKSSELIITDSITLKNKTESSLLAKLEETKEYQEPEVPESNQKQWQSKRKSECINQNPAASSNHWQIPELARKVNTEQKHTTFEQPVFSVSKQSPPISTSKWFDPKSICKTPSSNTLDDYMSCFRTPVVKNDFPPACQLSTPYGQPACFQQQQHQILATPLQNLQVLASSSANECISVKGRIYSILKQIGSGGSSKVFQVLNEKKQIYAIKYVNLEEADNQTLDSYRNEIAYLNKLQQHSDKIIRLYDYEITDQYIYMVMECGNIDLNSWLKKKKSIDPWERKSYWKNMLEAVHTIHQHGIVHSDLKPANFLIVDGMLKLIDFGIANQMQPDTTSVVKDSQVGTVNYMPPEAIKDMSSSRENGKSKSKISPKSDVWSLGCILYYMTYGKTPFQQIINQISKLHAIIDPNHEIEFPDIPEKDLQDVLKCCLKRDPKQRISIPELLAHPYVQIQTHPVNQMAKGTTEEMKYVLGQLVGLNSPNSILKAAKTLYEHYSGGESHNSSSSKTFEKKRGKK

[4] = system: VEGF-induced proliferation of HUVEC cells; assay: VEGF-induced HUVEC proliferation, MTT assay; format: cell-based, human; conditions: Homo sapiens, HUVEC, 48 h, 20 μM compound, VEGF 10 ng/mL, HUVEC, 48 h; relative to VEGF treated cells; mean ± SEM n = 3; read-out: % Inhibition of Proliferation
Outline: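 HUVECs starved 24 h in 0.1% BSA/0.1% FBS basal medium, then treated 48 h with VEGF (10 ng/mL) alone or with compounds at 20 μM (DMSO <1%). Proliferation by MTT (2 h, 37° C), formazan dissolved in acidified isopropanol, absorbance at 570 nm.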

[5] = system: hormone-dependent mammary carcinomas; conditions: 300 mg/kg, rats; cited from earlier work
IRAK1 = IRAK1 (Homo sapiens, UniProt P51617); conditions: 100 μM; cited from earlier work
[6] = molecular target: T3, Mitochondrial respiratory complex II (Rattus norvegicus, UniProt P21913+Q641Z9+Q6PCT8+Q920L2); assay: Mitochondrial respiratory complex II inhibition assay; format: biochemical
T3 construct: measured spectrophotometrically using isolated rat heart mitochondria; from tissue; host or cells: rat heart mitochondria / sub-mitochondrial particles
Outline: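 Rat heart mitochondria or sub-mitochondrial particles in phosphate buffer pH 7.4 with 40 μM DCPIP, 1 mM KCN, 10 μM rotenone and 50 μM co-enzyme Q2.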

T3 sequence (Q920L2 35-656): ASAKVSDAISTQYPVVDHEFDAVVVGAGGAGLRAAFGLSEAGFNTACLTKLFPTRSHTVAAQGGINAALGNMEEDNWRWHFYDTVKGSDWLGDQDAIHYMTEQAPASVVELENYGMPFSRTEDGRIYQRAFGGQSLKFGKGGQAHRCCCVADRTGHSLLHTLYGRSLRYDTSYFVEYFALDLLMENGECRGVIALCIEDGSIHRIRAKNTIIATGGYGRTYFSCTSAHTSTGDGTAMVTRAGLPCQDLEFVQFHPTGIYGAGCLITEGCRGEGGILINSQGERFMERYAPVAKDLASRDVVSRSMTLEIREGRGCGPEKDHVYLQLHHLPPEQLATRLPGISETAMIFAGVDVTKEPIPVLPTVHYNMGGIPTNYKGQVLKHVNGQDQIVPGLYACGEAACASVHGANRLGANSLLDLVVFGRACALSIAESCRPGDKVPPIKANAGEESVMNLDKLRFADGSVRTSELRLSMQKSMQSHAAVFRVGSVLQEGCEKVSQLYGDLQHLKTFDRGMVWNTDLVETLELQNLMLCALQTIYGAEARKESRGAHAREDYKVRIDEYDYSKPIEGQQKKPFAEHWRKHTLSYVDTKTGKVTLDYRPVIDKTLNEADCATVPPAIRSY
T3 sequence (P21913 31-282): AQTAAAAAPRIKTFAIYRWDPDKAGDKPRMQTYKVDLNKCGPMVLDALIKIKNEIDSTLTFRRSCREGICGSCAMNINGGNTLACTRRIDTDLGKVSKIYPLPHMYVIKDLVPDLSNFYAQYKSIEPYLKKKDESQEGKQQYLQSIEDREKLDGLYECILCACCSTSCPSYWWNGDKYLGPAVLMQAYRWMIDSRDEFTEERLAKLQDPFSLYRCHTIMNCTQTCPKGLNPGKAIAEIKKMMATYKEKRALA
T3 sequence (Q641Z9 1-169): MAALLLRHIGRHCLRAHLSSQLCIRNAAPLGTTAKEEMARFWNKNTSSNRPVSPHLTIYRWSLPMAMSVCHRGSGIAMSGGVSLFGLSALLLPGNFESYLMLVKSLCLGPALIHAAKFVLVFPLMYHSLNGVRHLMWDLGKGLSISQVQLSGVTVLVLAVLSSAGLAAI
T3 sequence (Q6PCT8 57-159): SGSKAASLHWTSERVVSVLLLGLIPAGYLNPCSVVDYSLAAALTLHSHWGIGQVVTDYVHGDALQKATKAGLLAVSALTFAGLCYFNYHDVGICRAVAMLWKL
Sequence of IRAK1 (P51617 whole entry): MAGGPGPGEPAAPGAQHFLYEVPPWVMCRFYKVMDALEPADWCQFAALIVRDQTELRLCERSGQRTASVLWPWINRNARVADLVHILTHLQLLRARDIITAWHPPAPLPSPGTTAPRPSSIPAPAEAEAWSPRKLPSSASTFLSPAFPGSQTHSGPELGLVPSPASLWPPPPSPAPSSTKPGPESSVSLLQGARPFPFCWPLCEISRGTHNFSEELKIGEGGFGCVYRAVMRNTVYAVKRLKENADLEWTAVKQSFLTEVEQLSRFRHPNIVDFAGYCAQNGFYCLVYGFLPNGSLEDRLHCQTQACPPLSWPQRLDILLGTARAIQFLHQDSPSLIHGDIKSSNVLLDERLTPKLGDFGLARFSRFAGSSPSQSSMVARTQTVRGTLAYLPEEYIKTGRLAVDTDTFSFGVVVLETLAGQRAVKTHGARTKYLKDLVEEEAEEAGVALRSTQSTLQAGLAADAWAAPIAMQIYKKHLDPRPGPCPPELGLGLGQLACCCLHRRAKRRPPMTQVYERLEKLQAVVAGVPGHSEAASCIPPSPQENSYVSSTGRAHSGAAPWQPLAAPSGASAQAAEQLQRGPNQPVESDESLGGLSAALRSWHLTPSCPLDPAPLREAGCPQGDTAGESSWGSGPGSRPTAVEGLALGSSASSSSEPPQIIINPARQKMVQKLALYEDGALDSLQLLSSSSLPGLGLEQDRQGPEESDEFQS
T1 sequence (Q920L2 35-656): as the sequence (Q920L2 35-656) above
T1 sequence (P21913 31-282): as the sequence (P21913 31-282) above
T1 sequence (Q641Z9 30-169 limits assumed): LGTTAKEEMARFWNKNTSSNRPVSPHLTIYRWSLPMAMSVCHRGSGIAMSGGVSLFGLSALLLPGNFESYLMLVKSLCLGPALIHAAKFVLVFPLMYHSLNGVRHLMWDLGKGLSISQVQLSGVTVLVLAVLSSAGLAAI
T1 sequence (Q6PCT8 57-159): as the sequence (Q6PCT8 57-159) above

inhibition of CII ([6]; 100 μM, relative to DMSO control): no CII inhibition activity
inhibition at 100 µM ([6]; 100 μM, relative to DMSO control, read-out: inhibition of CII): 9%
IC50 ([6]; isolated rat heart mitochondria, mean ±SD of n = 4, read-out: CII IC50): 1240 µM and > 1000 µM
Compound: CC1=Nc2ccc(Cl)cc2S(=O)(=O)N1 [Diazoxide, 7-chloro-3-methyl-2H-1,2,4-benzothiadiazine 1,1-dioxide, reference compound]
response rate (breast cancer; nine patients): 33%
duration of stable disease (breast cancer): 4-8 months
IC50 [1]: 130 µM
effect on cell viability of prostate cancer cells [2]: no effect to reduce cell viability
effect on cell viability of prostate cancer cells ([2]; listed as 9): no effect on cell viability
cytotoxicity at 100 µM ([2]; Homo sapiens, 22Rv1, 48 h, read-out: reduction of 22Rv1 cell viability): 12%
IC50 [3]: 32 µM
inhibition of TTK (TTK): 15%
inhibition at 20 µM [4]: 15 ± 20%
adverse effect [5]: mild reversible diabetes
inhibition of tumor growth [5]: 90%
inhibition of IRAK1 (IRAK1): 9%
